The compounds below were run against T1, Amyloid-beta precursor protein (Homo sapiens, UniProt P05067) (assay: Inhibition of amyloid beta (1 to 42) (unknown origin) assessed as reduction in aggregation at 50 uM by ThT fluorescence assay).
T1 sequence (P05067 whole entry): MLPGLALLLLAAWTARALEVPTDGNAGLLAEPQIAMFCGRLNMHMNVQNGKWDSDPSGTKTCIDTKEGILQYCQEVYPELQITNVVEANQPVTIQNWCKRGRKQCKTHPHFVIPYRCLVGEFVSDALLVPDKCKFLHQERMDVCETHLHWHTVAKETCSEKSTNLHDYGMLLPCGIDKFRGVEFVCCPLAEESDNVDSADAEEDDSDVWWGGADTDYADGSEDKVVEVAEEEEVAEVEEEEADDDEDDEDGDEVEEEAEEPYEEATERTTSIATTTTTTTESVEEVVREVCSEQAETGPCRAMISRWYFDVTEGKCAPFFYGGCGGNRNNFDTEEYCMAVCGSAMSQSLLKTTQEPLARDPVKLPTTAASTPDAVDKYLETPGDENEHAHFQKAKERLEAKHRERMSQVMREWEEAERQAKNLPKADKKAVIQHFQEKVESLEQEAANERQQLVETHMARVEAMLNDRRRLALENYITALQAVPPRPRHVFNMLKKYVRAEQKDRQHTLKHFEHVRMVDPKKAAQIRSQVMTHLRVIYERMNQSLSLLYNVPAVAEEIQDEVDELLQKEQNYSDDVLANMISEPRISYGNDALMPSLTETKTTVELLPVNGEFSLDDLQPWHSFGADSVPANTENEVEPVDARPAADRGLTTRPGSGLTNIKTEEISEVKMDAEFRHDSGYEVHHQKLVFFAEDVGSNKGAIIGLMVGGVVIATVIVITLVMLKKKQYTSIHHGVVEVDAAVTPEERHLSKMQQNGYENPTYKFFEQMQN

| inhibition | SMILES |
| --- | --- |
| 44% | COc1ccc(-c2cc(=O)c3c(O)cc(O)c(-c4cc(-c5cc(=O)c6c(O)cc(OC)cc6o5)ccc4OC)c3o2)cc1 [SCIADOPITISIN] |

Each compound was assayed against T1, Amyloid-beta precursor protein (assay: Inhibition of human amyloid beta (1 to 40) assessed as reduction in aggregation measured after 24 hrs by ThT fluorescence assay).

| IC50 | SMILES |
| --- | --- |
| > 50 µM | COc1ccc(-c2cc(=O)c3c(O)cc(OC)c(-c4cc(-c5cc(=O)c6c(O)cc(OC)cc6o5)ccc4O)c3o2)cc1 [HEVEAFLAVONE] |
| > 50 µM | COc1ccc(-c2cc(=O)c3c(O)cc(OC)c(-c4c(OC)cc5oc(-c6ccc(O)cc6)cc(=O)c5c4O)c3o2)cc1 |
| > 50 µM | COc1ccc(-c2cc(=O)c3c(O)cc(O)cc3o2)cc1-c1c(O)cc2oc(-c3ccc(O)cc3)cc(=O)c2c1O |
| 17.3 µM | COc1cc(O)c2c(=O)cc(-c3ccc(O)cc3)oc2c1-c1c(OC)cc(O)c2c(=O)cc(-c3ccc(O)cc3)oc12 |
| 13.2 µM | COc1cc(O)c2c(=O)cc(-c3ccc(OC)c(-c4c(O)cc(O)c5c(=O)cc(-c6ccc(O)cc6)oc45)c3)oc2c1 [GINKGETIN] |
| > 50 µM | COc1cc(O)c2c(=O)cc(-c3ccc(OC)c(-c4c(OC)cc(O)c5c(=O)cc(-c6ccc(O)cc6)oc45)c3)oc2c1 |
| > 50 µM | COc1ccc(-c2cc(=O)c3c(O)cc(OC)c(-c4cc(-c5cc(=O)c6c(O)cc(O)cc6o5)ccc4OC)c3o2)cc1 [KAYAFLAVONE] |
| 4.9 µM | COc1ccc(-c2cc(=O)c3c(O)cc(O)c(-c4cc(-c5cc(=O)c6c(O)cc(O)cc6o5)ccc4O)c3o2)cc1 [PODOCARPUSFLAVONE A] |
| 20.1 µM | COc1ccc(-c2cc(=O)c3c(O)cc(OC)c(-c4cc(-c5cc(=O)c6c(O)cc(O)cc6o5)ccc4O)c3o2)cc1 [7'',4'''-dimethylamentoflavone] |
| > 50 µM | COc1ccc(-c2cc(=O)c3c(O)c(Oc4ccc(-c5cc(=O)c6c(O)cc(O)cc6o5)cc4)c(OC)cc3o2)cc1 |
| > 50 µM | COc1ccc(-c2cc(=O)c3c(O)cc(O)c(-c4cc(-c5cc(=O)c6c(O)cc(OC)cc6o5)ccc4OC)c3o2)cc1 [SCIADOPITISIN] |
| 32.8 µM | COc1cc2oc(-c3ccc(O)cc3)cc(=O)c2c(O)c1-c1c(OC)cc(O)c2c(=O)cc(-c3ccc(O)cc3)oc12 |
| > 50 µM | COc1ccc(-c2cc(=O)c3c(O)cc(O)cc3o2)cc1-c1c(OC)cc(O)c2c(=O)cc(-c3ccc(O)cc3)oc12 |
| 4.8 µM | O=c1cc(-c2ccc(O)c(-c3c(O)cc(O)c4c(=O)cc(-c5ccc(O)cc5)oc34)c2)oc2cc(O)cc(O)c12 [AMENTOFLAVONE] |
| > 50 µM | COc1cc2oc(-c3ccc(O)cc3)cc(=O)c2c(O)c1Oc1ccc(-c2cc(=O)c3c(O)cc(O)cc3o2)cc1 |
| 45.6 µM | COc1ccc(-c2cc(=O)c3c(O)cc(OC)c(-c4c(OC)cc(O)c5c(=O)cc(-c6ccc(O)cc6)oc45)c3o2)cc1 |
| 10.1 µM | COc1ccc(-c2cc(=O)c3c(O)cc(O)c(-c4cc(-c5cc(=O)c6c(O)cc(O)cc6o5)ccc4OC)c3o2)cc1 [ISOGINKGETIN] |
| 21.3 µM | COc1cc2oc(-c3ccc(O)cc3)cc(=O)c2c(O)c1-c1cc(-c2cc(=O)c3c(O)cc(O)cc3o2)ccc1O |
| 4.9 µM | COc1cc(O)c2c(=O)cc(-c3ccc(O)c(-c4c(O)cc(O)c5c(=O)cc(-c6ccc(O)cc6)oc45)c3)oc2c1 [SEQUOIAFLAVONE] |
| 13 µM | COc1cc2oc(-c3ccc(O)cc3)cc(=O)c2c(O)c1-c1c(O)cc(O)c2c(=O)cc(-c3ccc(O)cc3)oc12 |
| 9.5 µM | O=c1cc(-c2ccc(Oc3c(O)cc4oc(-c5ccc(O)cc5)cc(=O)c4c3O)cc2)oc2cc(O)cc(O)c12 [HINOKIFLAVONE] |
| > 50 µM | COc1ccc(-c2cc(=O)c3c(O)cc(OC)c(-c4cc(-c5cc(=O)c6c(O)cc(OC)cc6o5)ccc4OC)c3o2)cc1 |
| 4.7 µM | COc1ccc(-c2cc(=O)c3c(O)cc(O)cc3o2)cc1-c1c(O)cc(O)c2c(=O)cc(-c3ccc(O)cc3)oc12 [BILOBETIN] |
| 15.9 µM | COc1ccc(-c2cc(=O)c3c(O)cc(O)c(-c4c(OC)cc5oc(-c6ccc(O)cc6)cc(=O)c5c4O)c3o2)cc1 |
| > 50 µM | COc1ccc(-c2cc(=O)c3c(O)cc(OC)c(-c4c(OC)cc(O)c5c(=O)cc(-c6ccc(OC)cc6)oc45)c3o2)cc1 |
| > 50 µM | COc1cc(O)c2c(=O)cc(-c3ccc(O)cc3)oc2c1-c1cc(-c2cc(=O)c3c(O)cc(O)cc3o2)ccc1O [SOTETSUFLAVONE] |
| > 50 µM | COc1ccc(-c2cc(=O)c3c(O)c(Oc4ccc(-c5cc(=O)c6c(O)cc(O)cc6o5)cc4)c(O)cc3o2)cc1 |

| SMILES | IC50 |
| --- | --- |
| O=c1cc(-c2ccc(O)cc2)oc2cc(O)cc(O)c12 [APIGENIN] | > 50 µM |

— ChEMBL document CHEMBL4387742, “Naturally occurring biflavonoids with amyloid β aggregation inhibitory activity for development of anti-Alzheimer agents” (Bioorg Med Chem Lett, 2019)
